Literature values as cited in PMC7584476, “Safety and efficacy of BAY1436032 in IDH1-mutant AML: phase I study results” (Leukemia, 2020).
Read-outs that look alike come from different tables or passages of the source.

Tests used:
primary AML samples = settings: cited from earlier work
mIDH1 AML = test system: mIDH1 AML; design: method as in PMID 29860938; settings: cited from earlier work

| Structure (SMILES) | Number of colony-forming cells (primary AML samples) | Half-life (mIDH1 AML) | ≥grade 3 TEAE IDH DS (mIDH1 AML) | ≥grade 3 TEAE QT prolongation (mIDH1 AML) | Median overall survival (mIDH1 AML; similar populations, 95% CI 6.7–10.2) | Number of colony-forming cells (primary AML samples; ref MH, unpublished) |
| --- | --- | --- | --- | --- | --- | --- |
| CC(C)(O)CNc1nc(Nc2ccnc(C(F)(F)F)c2)nc(-c2cccc(C(F)(F)F)n2)n1 [enasidenib] | increased |  |  |  |  |  |
| N#Cc1ccnc(N2C(=O)CC[C@H]2C(=O)N(c2cncc(F)c2)[C@H](C(=O)NC2CC(F)(F)C2)c2ccccc2Cl)c1 [ivosidenib] |  | 72 to 138 h | 4% | 8% | 8.8 months | increased |
